# Results: article PMC5485984, “Sugar-Binding Profiles of Chitin-Binding Lectins from the Hevein Family: A Comprehensive Study” (International Journal of Molecular Sciences, 2017)
# Target: T1, DSA (Datura stramonium agglutinin) (Datura stramonium, UniProt A0A089ZWN7)
# T1 construct: gene dsa-b; four hevein domains and extensin-like domain
# T1 sequence (A0A089ZWN7 24-279): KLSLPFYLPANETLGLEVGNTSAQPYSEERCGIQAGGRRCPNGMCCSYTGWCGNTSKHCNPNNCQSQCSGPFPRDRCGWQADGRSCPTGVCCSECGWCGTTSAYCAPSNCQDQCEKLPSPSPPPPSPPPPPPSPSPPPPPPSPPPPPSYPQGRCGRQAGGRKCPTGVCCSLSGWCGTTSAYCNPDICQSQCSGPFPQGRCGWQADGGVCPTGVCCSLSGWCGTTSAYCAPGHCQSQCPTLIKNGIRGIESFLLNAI
# Parameters: Frontal affinity chromatography, pyridylaminated oligosaccharides on Sepharose-immobilized lectin; Kd = Bt/(V-V0)
# Conditions: binder
# Method: For systematic comparison of sugar-binding properties of the six chitin-binding lectins, FAC was carried out with a previously established procedure. Briefly, to determine the Kd values of each of the six chitin-binding lectins for 124 PA-oligosaccharides, each of the lectins was immobilized on activated Sepharose at several concentrations: one for concentration-dependent analysis to determine the effective ligand content Bt (expressed in nmol) of a standard column, from which Kd values for a panel of PA-oligosaccharides were determined according to a simplified basic equation of FAC, Kd = Bt/(V − V0). The other(s) are supplementary to cover a wide range of possible Kd values, which is in direct relation to the observed value of V − V0 (for more detail, see Materials and Methods). […] It is often useful to discuss lectin-oligosaccharide interactions in terms of an affinity constant, Ka (1/Kd), instead of Kd. […] This was applied in the cases of DSA (6.0 and 1.5 mg/mL), UDA (6.0, 3.0, 1.0, and 0.3 mg/mL), WGA (7.0, 2.0, and 0.5 mg/mL), and LEL (6.0 and 0.5 mg/mL).
row,SMILES,Kd
1,"OC[C@@H](O)[C@@H](O[C@@H]1O[C@H](CO)[C@H](O)[C@H](O)[C@H]1O)[C@H](O)[C@@H](O)CNc1ccccn1 [compound 701, 701]",31 µM
2,"CC(=O)N[C@@H](CNc1ccccn1)[C@@H](O)[C@H](O[C@@H]1O[C@H](CO)[C@H](O)[C@H](O)[C@H]1O)[C@H](O)CO [compound 901, 901]",87 µM
